{"source": "paper PMC13372822", "about": "(The EMBO Journal, 2026)", "key": {"OXGR1": {"target": "OXGR1 (Homo sapiens, UniProt Q96P68)", "assay": "Calcium mobilization assay (Fluo-4 AM), wild-type OXGR1 in HEK293", "settings": "for signal at concentrations exceeding the reported range: bell-shaped response curve; for activity in OXGR1-transfected HEK293 cells: in words"}, "[1]": {"target": "T1, SUCR1 mutants (variant named in the endpoint) (Homo sapiens, UniProt Q9BXA5, F175L/I157M)", "T1 construct": "The full-length human SUCR1 and mutations were fused after the HA signal peptide and Flag tag; HA signal peptide (N); Flag (N); expressed in transfected cells; host or cells: HEK293 stably expressing Gα16 (pcDNA6.0, transient electroporation)", "T1 sequence (Q9BXA5 1-334 I157M/F175L)": "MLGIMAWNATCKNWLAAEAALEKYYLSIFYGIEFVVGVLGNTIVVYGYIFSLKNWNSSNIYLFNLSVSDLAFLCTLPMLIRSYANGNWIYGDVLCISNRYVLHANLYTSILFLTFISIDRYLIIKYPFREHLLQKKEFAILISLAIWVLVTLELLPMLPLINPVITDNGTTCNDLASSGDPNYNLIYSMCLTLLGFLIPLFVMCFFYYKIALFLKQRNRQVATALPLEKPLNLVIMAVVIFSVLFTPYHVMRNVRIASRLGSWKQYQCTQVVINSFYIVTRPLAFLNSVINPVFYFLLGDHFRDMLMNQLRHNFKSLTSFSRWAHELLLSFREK", "assay": "Calcium mobilization assay, SUCR1 mutants in HEK293 stably expressing Gα16;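 on Emax: percent of the maximal response to succinate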", "type": "cell-based"}, "[2]": {"target": "T2, SUCR1 mutants (variant named in the endpoint) (Homo sapiens, UniProt Q9BXA5, F285A/F72Y/L102F)", "T2 construct": "The full-length human SUCR1 and mutations were fused after the HA signal peptide and Flag tag; HA signal peptide (N); Flag (N); expressed in transfected cells; host or cells: HEK293 stably expressing Gα16 (pcDNA6.0, transient electroporation)", "T2 sequence (Q9BXA5 1-334 F72Y/L102F/F285A)": "T1 sequence (Q9BXA5 1-334 I157M/F175L) with F72Y, L102F, M157I, L175F, F285A", "assay": "Calcium mobilization assay, SUCR1 mutants in HEK293 stably expressing Gα16", "type": "cell-based"}, "[3]": {"target": "T3, SUCR1 mutants (variant named in the endpoint) (Homo sapiens, UniProt Q9BXA5, F72Y)", "T3 construct": "The full-length human SUCR1 and mutations were fused after the HA signal peptide and Flag tag; HA signal peptide (N); Flag (N); expressed in transfected cells; host or cells: HEK293 stably expressing Gα16 (pcDNA6.0, transient electroporation)", "T3 sequence (Q9BXA5 1-334 F72Y)": "T1 sequence (Q9BXA5 1-334 I157M/F175L) with F72Y, M157I, L175F", "assay": "Calcium mobilization assay, SUCR1 mutants in HEK293 stably expressing Gα16", "type": "cell-based"}, "[4]": {"target": "T4, SUCR1 mutants (variant named in the endpoint) (Homo sapiens, UniProt Q9BXA5, F175L)", "T4 construct": "The full-length human SUCR1 and mutations were fused after the HA signal peptide and Flag tag; HA signal peptide (N); Flag (N); expressed in transfected cells; host or cells: HEK293 stably expressing Gα16 (pcDNA6.0, transient electroporation)", "T4 sequence (Q9BXA5 1-334 F175L)": "T1 sequence (Q9BXA5 1-334 I157M/F175L) with M157I", "assay": "Calcium mobilization assay, SUCR1 mutants in HEK293 stably expressing Gα16", "type": "cell-based", "settings": "for EC50: SUCR1 F175L"}, "[5]": {"target": "T5, SUCR1 mutants (variant named in the endpoint) (Homo sapiens, UniProt Q9BXA5, F285A/F72Y/Y248F)", "T5 construct": "The full-length human SUCR1 and mutations were fused after the HA signal peptide and Flag tag; HA signal peptide (N); Flag (N); expressed in transfected cells; host or cells: HEK293 stably expressing Gα16 (pcDNA6.0, transient electroporation)", "T5 sequence (Q9BXA5 1-334 F72Y/Y248F/F285A)": "T1 sequence (Q9BXA5 1-334 I157M/F175L) with F72Y, M157I, L175F, Y248F, F285A", "assay": "Calcium mobilization assay, SUCR1 mutants in HEK293 stably expressing Gα16", "type": "cell-based"}, "[6]": {"target": "T6, SUCR1 mutants (variant named in the endpoint) (Homo sapiens, UniProt Q9BXA5, F285A)", "T6 construct": "The full-length human SUCR1 and mutations were fused after the HA signal peptide and Flag tag; HA signal peptide (N); Flag (N); expressed in transfected cells; host or cells: HEK293 stably expressing Gα16 (pcDNA6.0, transient electroporation)", "T6 sequence (Q9BXA5 1-334 F285A)": "T1 sequence (Q9BXA5 1-334 I157M/F175L) with M157I, L175F, F285A", "assay": "Calcium mobilization assay, SUCR1 mutants in HEK293 stably expressing Gα16", "type": "cell-based"}, "[7]": {"test_system": "mock-transfected HEK293 cells", "assay": "Calcium assay in mock-transfected (empty vector) HEK293 cells", "type": "cell-based", "description": "Figure. R3 | Activity of the compounds on OXGR1 using calcium assays.\nConcentration-response curves of the four agonists in activating OXGR1 through the calcium assays. HEK293 cells were transfected with OXGR1 or empty vector by electroporation.\nCells were then loaded with Fluo-4 AM and intracellular calcium changes after stimulation with different compounds were monitored. Responses were normalized to 100% for the maximal response of each compound on OXGR1. Data are mean ± S.E.M. from three independent experiments (n = 3), with three technical replicates performed for each […]\n(1 picture or pasted object on this page, not shown here)"}, "[8]": {"settings": "HEK293, OXGR1 WT, each ligand normalized to WT (100%)"}, "[9]": {"settings": "HEK293, OXGR1 WT, normalized to the maximal response elicited by AKG (100%)"}}, "note": "Where a chain is given by its changes, count along the chain named."}
{"smiles": "O=C(O)CCC(=O)C(=O)O", "note": "[AKG, α-ketoglutarate]", "values": [{"measurement": "Emax", "setting": "OXGR1; HEK293", "result": "100 ± 11", "unit": "%"}, {"measurement": "signal at concentrations exceeding the reported range", "setting": "OXGR1", "result": "decrease in signal"}, {"measurement": "activity in OXGR1-transfected HEK293 cells", "setting": "OXGR1", "result": "robust activity"}, {"measurement": "Emax", "setting": "[1]; HEK293", "result": "-6.6 ± 3", "unit": "%"}, {"measurement": "Emax", "setting": "[2]; HEK293", "result": "5 ± 1", "unit": "%"}, {"measurement": "Emax", "setting": "[3]; HEK293", "result": "4.1 ± 2", "unit": "%"}, {"measurement": "Emax", "setting": "[4]; HEK293", "result": "3.5 ± 1", "unit": "%"}, {"measurement": "Emax", "setting": "[5]; HEK293", "result": "19 ± 2", "unit": "%"}, {"measurement": "Emax", "setting": "[6]; HEK293", "result": "1.7 ± 3", "unit": "%"}, {"measurement": "activity in mock-transfected cells", "setting": "[7]", "result": "no activity"}]}
{"smiles": "C=C(CC(=O)O)C(=O)O", "note": "[ITA, itaconate]", "values": [{"measurement": "EC50", "setting": "OXGR1; EC50, OXGR1 WT, Gq-mediated calcium signaling (Fig. 1D, Appendix Table S1)", "result": 83, "unit": "µM"}, {"measurement": "Emax", "setting": "OXGR1; [8]", "result": "100 ± 10", "unit": "%"}, {"measurement": "Emax", "setting": "OXGR1; [9]", "result": "117 ± 4", "unit": "%"}, {"measurement": "signal at concentrations exceeding the reported range", "setting": "OXGR1", "result": "decrease in signal"}, {"measurement": "activity in OXGR1-transfected HEK293 cells", "setting": "OXGR1", "result": "robust activity"}, {"measurement": "Emax", "setting": "[1]; HEK293, SUCR1 F175L-I157M, Emax relative to the SUC", "result": "-3.1 ± 4", "unit": "%"}, {"measurement": "Emax", "setting": "[2]; HEK293, SUCR1 F72Y-L102F-F285A, Emax relative to the SUC", "result": "43 ± 5", "unit": "%"}, {"measurement": "Emax", "setting": "[3]; HEK293, SUCR1 F72Y, Emax relative to the SUC", "result": "3 ± 3", "unit": "%"}, {"measurement": "EC50", "setting": "[4]", "result": "340 ± 300", "unit": "µM"}, {"measurement": "ITA responsiveness of SUCR1-F175L", "setting": "[4]; in words", "result": "partial ITA responsiveness"}, {"measurement": "Emax", "setting": "[5]; HEK293, SUCR1 F72Y-F285A-Y248F, Emax relative to the SUC", "result": "2.2 ± 2", "unit": "%"}, {"measurement": "Emax", "setting": "[6]; HEK293, SUCR1 F285A, Emax relative to the SUC", "result": "6.3 ± 3", "unit": "%"}, {"measurement": "activity in mock-transfected cells", "setting": "[7]", "result": "no activity"}]}
{"smiles": "O=C(O)CCC(=O)O", "note": "[SUC, succinate]", "values": [{"measurement": "Emax", "setting": "OXGR1; [8]", "result": "100 ± 4", "unit": "%"}, {"measurement": "Emax", "setting": "OXGR1; [9]", "result": "154 ± 4", "unit": "%"}, {"measurement": "activity in OXGR1-transfected HEK293 cells", "setting": "OXGR1", "result": "robust activity"}, {"measurement": "EC50", "setting": "[1]; SUCR1 F175L-I157M", "result": "150 ± 9", "unit": "µM"}, {"measurement": "EC50", "setting": "[2]; SUCR1 F72Y-L102F-F285A", "result": "3900 ± 1300", "unit": "µM"}, {"measurement": "EC50", "setting": "[3]; SUCR1 F72Y", "result": "1800 ± 300", "unit": "µM"}, {"measurement": "EC50", "setting": "[4]", "result": "18 ± 3", "unit": "µM"}, {"measurement": "EC50", "setting": "[5]; SUCR1 F72Y-F285A-Y248F", "result": "2700 ± 780", "unit": "µM"}, {"measurement": "EC50", "setting": "[6]; SUCR1 F285A", "result": "3600 ± 800", "unit": "µM"}, {"measurement": "activity in mock-transfected cells", "setting": "[7]", "result": "no activity"}]}
